# pIC50: −log10 of the molar value.
# Biological target: recombinant human baculovirus-expressed cMET (Homo sapiens (Human), UniProt P08581)
# Assay: c-MET kinase assay (HTRF KinEASE)
# Assay type: biochemical
# Details: average of two or more determinations; read-out: c-MET IC50
row,Compound,pIC50
1,"O=C(Nc1ccc(Oc2cc(N3CCCCC3)cn3nccc23)c(F)c1)c1cccn(-c2ccc(F)cc2)c1=O [Example 57, 1-(4-Fluoro-phenyl)-2-oxo-1,2-dihydro-pyridine-3-carboxylic acid[3-fluoro-4-(6-piperidin-1-yl-pyrazolo[1,5-a]pyridin-4-yloxy)-phenyl]-amide]",> 8.00
2,"Cc1ccc(C(=O)Nc2ccc(Oc3cc(N4CCOCC4)cn4nccc34)c(F)c2)c(=O)n1-c1ccc(F)cc1 [Example 60, 1-(4-Fluoro-phenyl)-6-methyl-2-oxo-1,2-dihydro-pyridine-3-carboxylic acid [3-fluoro-4-(6-morpholin-4-yl-pyrazolo[1,5-a]pyridin-4-yloxy)-phenyl]-amide]",> 8.00
3,"O=C(Nc1ccc(F)cc1)C1(C(=O)Nc2ccc(Oc3cc(N4CCOCC4)cn4nccc34)c(F)c2)CC1 [Example 63, Cyclopropane-1,1-dicarboxylic acid[3-fluoro-4-(6-morpholin-4-yl-pyrazolo[1,5-a]pyridin-4-yloxy)-phenyl]-amide(4-fluoro-phenyl)-amide]",7.00 to 8.00
4,"O=C(Nc1ccc(Oc2cc(N3CCC4(CC3)OCCO4)cn3nccc23)c(F)c1)c1cccn(-c2ccc(F)cc2)c1=O [Example 67, 1-4-(Fluoro-phenyl)-2-oxo-1,2-dihydro-pyridine-3-carboxylic acid{4-[6-(1,4-dioxa-8-aza-spiro[4,5]dec-8-yl)-pyrazolo[1,5-a]pyridin-4-yloxy]-3-fluoro-phenyl}-amide]",7.00 to 8.00
5,"CC(C)n1cc(C(=O)Nc2ccc(Oc3cc(N4CCC(F)(F)CC4)cn4nccc34)c(F)c2)c(=O)n(-c2ccc(F)cc2)c1=O [Example 69, 3-(4-Fluoro-phenyl)-1-isopropyl-2,4-dioxo-1,2,3,4-tetrahydro-pyrimidine-5-carboxylic acid{4-[6-(4,4-difluoro-piperidin-1-yl)-pyrazolo[1,5-a]pyridin-4-yloxy]-3-fluoro-phenyl}-amide]",7.00 to 8.00
6,"CC(C)n1cc(C(=O)Nc2ccc(Oc3cc(N4CCC(F)(F)C4)cn4nccc34)c(F)c2)c(=O)n(-c2ccc(F)cc2)c1=O [Example 71, 3-(4-Fluoro-phenyl)-1-isopropyl-2,4-dioxo-1,2,3,4-tetrahydro-pyrimidine-5-carboxylic acid{4-[6-(3,3-difluoro-pyrrolidin-1-yl)-pyrazolo[1,5-a]pyridin-4-yloxy]-3-fluoro-phenyl}-amide]",7.00 to 8.00
7,"O=C(Nc1ccc(Oc2cc(N3CCS(=O)(=O)CC3)cn3nccc23)c(F)c1)c1cccn(-c2ccc(F)cc2)c1=O [Example 72, 1-(4-Fluoro-phenyl)-2-oxo-1,2-dihydro-pyridine-3-carboxylic acid{4-[6-(1,1-dioxo-thiomorpholin-4-yl)-pyrazolo[1,5-a]pyridin-4-yloxy]-3-fluoro-phenyl}-amide]",7.00 to 8.00
8,"CC(C)n1cc(C(=O)Nc2ccc(Oc3cc(N4CCS(=O)(=O)CC4)cn4nccc34)c(F)c2)c(=O)n(-c2ccc(F)cc2)c1=O [Example 74, 3-(4-Fluoro-phenyl)-1-isopropyl-2,4-dioxo-1,2,3,4-tetrahydro-pyrimidine-5-carboxylic acid{4-[6-(1,1-dioxo-thiomorpholin-4-yl)-pyrazolo[1,5-a]pyridin-4-yloxy]-3-fluoro-phenyl}-amide]",> 8.00
9,"O=C(Nc1ccc(Oc2cc(N3CCCC3)cn3nccc23)c(F)c1)c1cccn(-c2ccc(F)cc2)c1=O [Example 75, 1-(4-Fluoro-phenyl)-2-oxo-1,2-dihydro-pyridine-3-carboxylic acid[3-fluoro-4-(6-pyrrolidin-1-yl-pyrazolo[1,5-a]pyridin-4-yloxy)-phenyl]-amide]",> 8.00
10,"O=C(Nc1ccc(Oc2cc(N3CCCC3=O)cn3nccc23)c(F)c1)c1cccn(-c2ccc(F)cc2)c1=O [Example 76, 1-(4-Fluoro-phenyl)-2-oxo-1,2-dihydro-pyridine-3-carboxylic acid{3-fluoro-4-[6-(2-oxo-pyrrolidin-1-yl)-pyrazolo[1,5-a]pyridin-4-yloxy]-phenyl}-amide]",> 8.00
11,"CC(C)n1cc(C(=O)Nc2ccc(Oc3cc(N4CCCC4=O)cn4nccc34)c(F)c2)c(=O)n(-c2ccc(F)cc2)c1=O [Example 78, 3-(4-Fluoro-phenyl)-1-isopropyl-2,4-dioxo-1,2,3,4-tetrahydro-pyrimidine-5-carboxylic acid {3-fluoro-4-[6-(2-oxo-pyrrolidin-1-yl)-pyrazolo[1,5-a]pyridin-4-yloxy]-phenyl}-amide]",> 8.00
12,"Cn1cc(-c2cc(Oc3ccc(NC(=O)c4cccn(-c5ccc(F)cc5)c4=O)cn3)c3ccnn3c2)cn1 [Example 89, 1-(4-Fluoro-phenyl)-2-oxo-1,2-dihydro-pyridine-3-carboxylic acid{6-[6-(1-methyl-1H-pyrazol-4-yl)-pyrazolo[1,5-a]pyridin-4-yloxy]-pyridin-3-yl}-amide]",> 8.00

# Other lines, results leading:
row,pIC50,Compound
1,7.00 to 8.00,"CCOCCn1cc(C(=O)Nc2ccc(Oc3cc(N4CCOCC4)cn4nccc34)c(F)c2)c(=O)n(-c2ccc(F)cc2)c1=O [Example 58, 1-(2-Ethoxy-ethyl)-3-(4-fluoro-phenyl)-2,4-dioxo-1,2,3,4-tetrahydro-pyrimidine-5-carboxylic acid [3-fluoro-4-(6-morpholin-4-yl-pyrazolo[1,5-a]pyridin-4-yloxy)-phenyl]-amide]"
2,> 8.00,"CCn1cc(C(=O)Nc2ccc(Oc3cc(N4CCOCC4)cn4nccc34)c(F)c2)c(=O)n(-c2ccc(F)cc2)c1=O [Example 61, 1-Ethyl-3-(4-fluoro-phenyl)-2,4-dioxo-1,2,3,4-tetrahydro-pyrimidine-5-carboxylic acid[3-fluoro-4-(6-morpholin-4-yl-pyrazolo[1,5-a]pyridin-4-yloxy)-phenyl]-amide]"
3,7.00 to 8.00,"CCn1cc(C(=O)Nc2ccc(Oc3cc(N4CCC(F)(F)C4)cn4nccc34)c(F)c2)c(=O)n(-c2ccc(F)cc2)c1=O [Example 70, 1-Ethyl-3-(4-fluoro-phenyl)-2,4-dioxo-1,2,3,4-tetrahydro-pyrimidine-5-carboxylic acid{4-[6-(3,3-difluoro-pyrrolidin-1-yl)-pyrazolo[1,5-a]pyridin-4-yloxy]-3-fluoro-phenyl}-amide]"
4,> 8.00,"CCn1cc(C(=O)Nc2ccc(Oc3cc(N4CCS(=O)(=O)CC4)cn4nccc34)c(F)c2)c(=O)n(-c2ccc(F)cc2)c1=O [Example 73, 1-Ethyl-3-(4-fluoro-phenyl)-2,4-dioxo-1,2,3,4-tetrahydro-pyrimidine-5-carboxylic acid{4-[6-(1,1-dioxo-thiomorpholin-4-yl)-pyrazolo[1,5-a]pyridin-4-yloxy]-3-fluoro-phenyl}-amide]"
5,> 8.00,"O=C(Nc1ccc(Oc2cc(Nc3ccccc3)cn3nccc23)c(F)c1)c1cccn(-c2ccc(F)cc2)c1=O [Example 80, 1-(4-Fluoro-phenyl)-2-oxo-1,2-dihydro-pyridine-3-carboxylic acid[3-fluoro-4-(6-phenylamino-pyrazolo[1,5-a]pyridin-4-yloxy)-phenyl]-amide]"
6,> 8.00,"O=C(Nc1ccc(Oc2cc(Nc3ccccn3)cn3nccc23)c(F)c1)c1cccn(-c2ccc(F)cc2)c1=O [Example 81, 1-(4-Fluoro-phenyl)-2-oxo-1,2-dihydro-pyridine-3-carboxylic acid{3-fluoro-4-[6-(pyridin-2-ylamino)-pyrazolo[1,5-a]pyridin-4-yloxy]-phenyl}-amide]"
7,> 8.00,"Cc1c(Nc2cc(Oc3ccc(NC(=O)c4cccn(-c5ccc(F)cc5)c4=O)cc3F)c3ccnn3c2)cnn1C [Example 82, 1-(4-Fluoro-phenyl)-2-oxo-1,2-dihydro-pyridine-3-carboxylic acid{4-[6-(1,5-dimethyl-1H-pyrazol-4-ylamino)-pyrazolo[1,5-a]pyridin-4-yloxy]-3-fluoro-phenyl}-amide]"
8,> 8.00,"Cc1ccc(C(=O)Nc2ccc(Oc3cc(Nc4ccc(F)cn4)cn4nccc34)c(F)c2)c(=O)n1-c1ccc(F)cc1 [Example 83, 1-(4-Fluoro-phenyl)-6-methyl-2-oxo-1,2-dihydro-pyridine-3-carboxylic acid {3-fluoro-4-[6-(5-fluoro-pyridin-2-ylamino)-pyrazolo[1,5-a]pyridin-4-yloxy]-phenyl}-amide]"
9,7.00 to 8.00,"CCn1cc(C(=O)Nc2ccc(Oc3cc(Nc4ncccn4)cn4nccc34)c(F)c2)c(=O)n(-c2ccc(F)cc2)c1=O [Example 84, 1-Ethyl-3-(4-fluoro-phenyl)-2,4-dioxo-1,2,3,4-tetrahydro-pyrimidine-5-carboxylic acid{3-fluoro-4-[6-(pyrimidin-2-ylamino)-pyrazolo[1,5-a]pyridin-4-yloxy]-phenyl}-amide]"
10,> 8.00,"CC(C)n1cc(C(=O)Nc2ccc(Oc3cc(Nc4ncccn4)cn4nccc34)c(F)c2)c(=O)n(-c2ccc(F)cc2)c1=O [Example 85, 3-(4-Fluoro-phenyl)-1-isopropyl-2,4-dioxo-1,2,3,4-tetrahydro-pyrimidine-5-carboxylic acid{3-fluoro-4-[6-(pyrimidin-2-ylamino)-pyrazolo[1,5-a]pyridin-4-yloxy]-phenyl}-amide]"
11,7.00 to 8.00,"CCn1cc(C(=O)Nc2ccc(Oc3cc(Nc4ccccn4)cn4nccc34)c(F)c2)c(=O)n(-c2ccc(F)cc2)c1=O [Example 86, 1-Ethyl-3-(4-fluoro-phenyl)-2,4-dioxo-1,2,3,4-tetrahydro-pyrimidine-5-carboxylic acid{3-fluoro-4-[6-(pyridin-2-ylamino)-pyrazolo[1,5-a]pyridin-4-yloxy]-phenyl}-amide]"
12,7.00 to 8.00,"CC(C)n1cc(C(=O)Nc2ccc(Oc3cc(Nc4ccccn4)cn4nccc34)c(F)c2)c(=O)n(-c2ccc(F)cc2)c1=O [Example 87, 3-(4-Fluoro-phenyl)-1-isopropyl-2,4-dioxo-1,2,3,4-tetrahydro-pyrimidine-5-carboxylic acid{3-fluoro-4-[6-(pyridin-2-ylamino)-pyrazolo[1,5-a]pyridin-4-yloxy]-phenyl}-amide]"

# Same assay, conditions: read-out: c-MET IC50
row,Compound,pIC50
1,"CCOc1ccn(-c2ccc(F)cc2)c(=O)c1C(=O)Nc1ccc(Oc2cc(N3CCOCC3)cn3nccc23)c(F)c1 [Example 66, 4-Ethoxy-1-(4-fluoro-phenyl)-2-oxo-1,2-dihydro-pyridine-3-carboxylic acid [3-fluoro-4-(6-morpholin-4-yl-pyrazolo[1,5-a]pyridin-4-yloxy)-phenyl]-amide]",> 8.00

# — patent publication US9914731B2, “Pyrazolo[1,5-a]pyridine derivatives and methods of their use” (Ignyta, Inc., priority 2013, dated 2018)
